In publication PMC7334220, “Diamond Blackfan anemia is mediated by hyperactive Nemo-like kinase” (Nature Communications, 2020):
Read-outs that look alike come from different tables or passages of the source.

Key:
NLK = biological target: T1, NLK (Homo sapiens, UniProt Q9UBE8); experiment: NLK in vitro kinase assay (NLK, c-Myb, Raptor substrates); assay type: biochemical; details: for inhibition of NLK-mediated phosphorylation of NLK substrates NLK, c-Myb and Raptor: added to activated NLK in vitro, Supplementary Fig. 1c
T1 construct: NLK, p38, or ALK5 for in vitro kinase assays were immunopurified from Kp53A1 cells; endogenous in cells; immunoprecipitated with anti-NLK (Abcam AB97642)
T1 sequence (Q9UBE8 1-527): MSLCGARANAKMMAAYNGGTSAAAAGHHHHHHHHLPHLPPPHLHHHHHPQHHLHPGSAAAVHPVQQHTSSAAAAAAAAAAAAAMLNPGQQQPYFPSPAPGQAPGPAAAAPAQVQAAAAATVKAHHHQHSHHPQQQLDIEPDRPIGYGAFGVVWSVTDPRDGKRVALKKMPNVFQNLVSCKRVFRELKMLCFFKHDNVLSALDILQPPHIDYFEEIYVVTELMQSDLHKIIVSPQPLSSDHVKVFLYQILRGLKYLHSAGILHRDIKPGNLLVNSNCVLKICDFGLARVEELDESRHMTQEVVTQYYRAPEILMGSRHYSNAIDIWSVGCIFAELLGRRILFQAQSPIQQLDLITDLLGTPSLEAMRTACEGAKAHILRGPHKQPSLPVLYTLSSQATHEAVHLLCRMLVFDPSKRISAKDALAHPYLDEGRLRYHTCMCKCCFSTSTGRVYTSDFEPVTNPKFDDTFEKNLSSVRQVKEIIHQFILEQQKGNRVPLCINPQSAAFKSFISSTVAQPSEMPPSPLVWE
Description: Equivalent protein was loaded between samples. b—blue Transduced progenitors were differentiated for 15 days and sorted for surface expression of CD235 + , CD41 + and CD11b + population NLK mRNA was assessed by qRT-PCR. c Control and shRPS19-transduced CB progenitors were differentiated for 10 days prior to separation into CD71^+ and CD71^- populations and assessed for pThr298-NLK phosphorylation by Western blot analysis. d—purple CB CD34 + progenitors were transduced with shRNA against luciferase (shLuc) or RPS19 (shRPS19) along with CFP-NLK and YFP-NLK and differentiated for 10 days. NLK dimerization was quantified by FRET. e—left panel NLK was immunoprecipitated from transduced differentiating CD71^+ and CD71^- populations after 10 days, and incubated in the presence of ATP, Mg^2+ and dephosphorylated NLK (i orange), c-Myb (ii—blue) and Raptor (iii—green) for 30 min at 37 °C. Phosphorylation was detected by a combination of anti^-phosphoserine-HRP and anti-phosphothreonine-HRP antibodies, or mouse anti-phosphoserine and anti-mouse-HRP antibodies. e—right panel For comparison, NLK in vitro kinase activity was assessed from CD235^+, CD41^+ and CD11b^+ populations enriched after identical treatments. f A panel of eight small molecule p38 inhibitors were titrated into in vitro kinase assays in the presence of activated NLK or p38 from stimulated Kp53A1 cells. The IC50 for NLK and p38 for each compound was calculated. The data are represented diagrammatically with IC50 values represented as vertical lines along a concentration gradient for NLK and p38. Kinase activity is represented as blue and the extent of inhibition is depicted in white. […] Bars represent means ± SD with individual data points overlaid. n = 3 independent experiments performed in triplicate.Statistics: two-tailed Student’s t test, significant *p < 0.05. Also see Supplementary Figs. 3 and 4. Source data are provided as a Source Data file. […] Inhibitors were added to cells at indicated concentrations with a final DMSO concentration of 0.5%. […] IC50 calculations were obtained using 8–9 concentrations of compound and generated using the IC50 Calculator software by AAT Bioquest®. NLK, p38, or ALK5 for in vitro kinase assays were immunopurified from Kp53A1 cells. NLK activation was induced by incubating cells at 32° for 24-48 h, p38 by stimulating with IL-3, IL-6, SCF, and Epo at the same concentrations used for differentiating erythroid progenitors.
For NLK kinase analysis, cultures were treated as indicated and lysed for 30 min at 4 °C in 750 μl of kinase lysis buffer (50 mM Tris [pH 7.4], 5 mM EDTA, 250 mM NaCl, 0.1% Triton X-100, 50 mM NaF, 0.1 trypsin inhibitor unit of aprotinin per ml, 50 μg of phenylmethylsulfonyl fluoride per ml, 100 μM sodium vanadate, 1 μg of leupeptin per ml). For TGFβR1 kinase analysis, cells were lysed in membrane kinase buffer (10 mM Tris-HCl (pH8.0), 140 mM NaCl, 300 mM KCl, 0.5% Triton X-100, and 0.5% sodium deoxycholate with complete protease inhibitor cocktail (Roche)). Extracts were clarified, and equivalent protein was incubated overnight at 4 °C with antibody (NLK: #AB97642; Abcam, TGFβR1: V22; Santa Cruz Biotechnology). Immune complexes were collected with Catch and Release® V2.0 Reversible Immunoprecipitation System and diluted in kinase buffer (25 mM Tris [pH 7.4], 10 mM MgCl2, 1 mM dithiothreitol). When cell numbers were limiting, NLK activity was amplified by adding 0.5 µg dephosphorylated NLK prior to performing kinase reaction. 50 μl of kinase buffer containing NLK or TGFβR1 sample and 5 μM ATP was incubated in the presence of biotinylated substrate (NLK, c-Myb, or Raptor for NLK and Smad2 or Smad3 for TGFβR1) immobilized on streptavidin-coated 96-well plates.

[1] = test system: RPS19-insufficient Lin-Kit+ progenitors from mouse embryonic (E14.5–E15.5) fetal livers; experiment: c-Kit+ erythroid expansion rescue in murine RPS19-insufficient progenitors (Cell titer-Glo); assay type: cell-based; details: for rescue of c-Kit+ erythroid expansion: 10 µM, murine RPS19-insufficient model, Fig. 1b; for EC50: Mus musculus, read-out: EC50 of improved erythroid growth
Description: Cells were plated at 2000 cell per well in 96-well plates in the presence or absence of doxycycline. Relative amounts of live cells were quantified by luciferase-based Cell titer-Glo® assay. b TGFβR1 inhibitors were assessed for their ability to increase cell expansion in RPS19-insuffiency. As a control, vehicle alone (no doxycycline) is represented at the far left while all other samples were treated with doxycycline to induce RPS19-insufficiency. c Kit^+ erythroid progenitors were grown in the absence of doxycycline and in the presence of 10 µM of indicated compound. In addition, cells were treated with 5 ng/ml of TGFβ1 for 5 days before being subjected to Cell titer-Glo® assay. d Differentiating cord blood CD34^+ progenitors were transduced with shRNA against luciferase or RPS19 and treated with inhibitors at working concentrations for TGFβ inhibition every three days. […] Cells were counted and CD235^+ erythroid (i and iii) and CD11b^+ myeloid cell (ii and iv) percentages were determined by flow cytometry. The number of erythroid or myeloid cells is expressed as a percentage of the number of that lineage with no cytokine or drug treatment. Bars represent means ± SD with individual data points overlaid. n = 3 independent experiments performed in triplicate. Statistics: two-tailed Student’s t test, significant *p < 0.05. Also see Supplementary Fig. 1. Erythroid expansion is depicted in red while myeloid is in purple. Source data are provided as a Source Data file.
(1 picture or pasted object on this page, not shown here)

p38 = details: reported, no reference given; read-out: reported IC50 against p38; cited from earlier work

Row | Compound | IC50 (NLK; Supplementary Fig. 1e, read-out: IC50 against NLK) | inhibition of NLK-mediated phosphorylation of NLK substrates NLK, c-Myb and Raptor (NLK) | rescue of c-Kit+ erythroid expansion [1] | EC50 ([1]; murine RPS19-insufficient cells, Supplementary Fig. 1a) | IC50 (p38) | IC50 (NLK) | SD208 concentration at which NLK activation was significantly inhibited in in vitro assays (NLK; rebuttal letter) | EC50 [1]
1 | NC(=O)c1ccc(-c2nc(-c3ccc4c(c3)OCO4)c(-c3ccccn3)[nH]2)cc1 [SB431542] | 1.07 µM | 55% | significantly rescued | 5 µM | 9 µM | – | – | –
2 | Fc1ccc(Cl)cc1-c1nc(Nc2ccncc2)c2nccnc2n1 [SD208] | – | ~ 80% | significantly rescued | – | 0.85 µM | 0.435 µM | below 0.1 uM | 0.7 µM
